Values of other authors, collected in patent US20170312324A1, “USE OF MAITAKE AND MAITAKE GRIFOLAN D COMPONENT IN PREPARATION OF ANTIDEPRESSANT DRUG” (Yunnan University, priority 2014, published 2017).

System: tumor
Conditions: comparison experiment with mitomycin

SMILES: CO[C@@]12[C@H](COC(N)=O)C3=C(C(=O)C(C)=C(N)C3=O)N1C[C@@H]1N[C@@H]12 [mitomycin]
- anti-tumor rate / tumor inhibition rate: 45%
